Results as given in patent US20250325684A1, “POTENT ANTI-CANCER CYCLOTIDES” (University of Southern California, priority 2022, published 2025).
Read-outs that look alike come from different tables or passages of the source. Numbered stars: 1 amine (or outer) side, 2 acyl side, 3 side chain; on linkers, the order of the positions; unused ones are H or OH. Bridge positions count the residues as written; N and C are the ends. Square brackets hold non-standard residues; d marks the D form. Peptide text beside a SMILES is read from it. I, II: the chains in the order shown. X1 = O=C(CCc1cn(CCOCCOCCOCCC(=O)[*:2])nn1)[*:1]; isoGln = NC(=O)[C@H](CCC(=O)[*:2])N[*:1]

How the values were obtained:
LoVo = test: MTT cell viability, LoVo cells; type: cell-based, human; settings: LoVo colon adenocarcinoma, p53 WT
Protocol: (§1) Cell viability assay in several human cancer cell lines (See Tables 1 to 10). Cell lines were cultured in RPMI 1640 (or recommended medium when indicated) medium supplemented with 10% fetal calf serum, penicillin (50 IU/mL) and streptomycin ([…]) at 37° C. in 5% CO2. Cell viability studies was carried using the MTT (3-(4,5-dimethylthiazol-2-yl)-2,5-diphenyltetrazolium bromide) assay as previously described (31). Briefly, ≈2×10^3 CRC cells were be seeded in 96-well microtiter plates in 100 μL RPMI 1640 in the presence of 10% calf serum. […] After 1 h, 210 μL/well of full complemented media was added, the cells were grown for 48 h and then treated with 20 μL of a solution of MTT (5 mg/mL) for 2 h. The medium was discarded and DMSO ([…]) was added to each well and incubated with gentle shaking for 20 min at room temperature. The absorbance at 595 nm of the solution is analyzed using a Tecan Genios Multifunctional Microplate Reader (Tecan System Inc) and the background at 670 nm subtracted. RNA-Seq analysis was performed using state-of-the-art bioinformatics tools. Briefly, raw RNA-Seq reads were mapped to human genome (hg38) using STAR aligner (v2.7.3a). Gencode Release 36 reference was used for annotation. Transcript and gene expression levels were quantified using the IsoEM (37) with default parameters. Counts per million (CPM) method is used for normalization. Differential expression was done using DESeq2 with default parameters. Genes involved in different biological pathways (human) were searched from Geneontology (http://geneontology.org/). Bioinformatics results can be validated by using Partek Flow (v10.0.21.0912), a bioinformatics pipeline developed by Zymo Research (https://www.zymoresearch.com/).
(§2) Cell viability was evaluated using the MTT assay as described above.

SW620 = test: MTT cell viability, SW620 cells; type: cell-based, human; settings: SW620 colon adenocarcinoma, p53 Mutant
Protocol: as §1, §2

HT29 = test: MTT cell viability, HT29 cells; type: cell-based, human; settings: HT29 colon adenocarcinoma, p53 Mutant
Protocol: as §1, §2

SW626 = test: MTT cell viability, SW626 cells; type: cell-based, human; settings: p53 Mutant
Protocol: as §1, §2

Caco-2 = test: MTT cell viability, Caco-2 cells; type: cell-based, human; settings: Caco-2 colon adenocarcinoma, p53 Mutant
Protocol: as §1, §2

SW480 = test: MTT cell viability, SW480 cells; type: cell-based, human; settings: SW480 colon adenocarcinoma, p53 Mutant
Protocol: as §1, §2

A2780 = test: MTT cell viability, A2780 ovarian cells; type: cell-based, human; settings: p53 WT
Protocol: (§3) Cell viability assay in several human cancer cell lines (See Tables 1 to 10). Cell lines were cultured in RPMI 1640 (or recommended medium when indicated) medium supplemented with 10% fetal calf serum, penicillin (50 IU/mL) and streptomycin ([…]) at 37° C. in 5% CO2. Cell viability studies was carried using the MTT (3-(4,5-dimethylthiazol-2-yl)-2,5-diphenyltetrazolium bromide) assay as previously described (31). Briefly, ≈2×10^3 CRC cells were be seeded in 96-well microtiter plates in 100 μL RPMI 1640 in the presence of 10% calf serum. After 24 h incubation the cells were washed with PBS and treated with 30 μL/well of PBS or RPMI 1640 (or recommended) media containing cyclotides MCo-52, MCoTI-I (used as negative control), nutlin-3a (used as positive control) or MI-77301 (used as positive control for p53-mutated or p53-null cells) at the indicated doses for 1 h at 37° C. in 5% CO2. After 1 h, 210 μL/well of full complemented media was added, the cells were grown for 48 h and then treated with 20 μL of a solution of MTT (5 mg/mL) for 2 h. The medium was discarded and DMSO ([…]) was added to each well and incubated with gentle shaking for 20 min at room temperature. The absorbance at 595 nm of the solution is analyzed using a Tecan Genios Multifunctional Microplate Reader (Tecan System Inc) and the background at 670 nm subtracted. RNA-Seq analysis was performed using state-of-the-art bioinformatics tools. Briefly, raw RNA-Seq reads were mapped to human genome (hg38) using STAR aligner (v2.7.3a). Gencode Release 36 reference was used for annotation. Transcript and gene expression levels were quantified using the IsoEM (37) with default parameters. Counts per million (CPM) method is used for normalization. Differential expression was done using DESeq2 with default parameters. Genes involved in different biological pathways (human) were searched from Geneontology (http://geneontology.org/). Bioinformatics results can be validated by using Partek Flow (v10.0.21.0912), a bioinformatics pipeline developed by Zymo Research (https://www.zymoresearch.com/).
(§4) Tables 1 through 10 show in vitro activity of cyclotide MCo-52-2-cTAT against different human cancer cell lines, some with null-, mutated, or wildtype p53 phenotypes. Cell viability was evaluated using the MTT assay as described above.

NIHOVCAR3 = test: MTT cell viability, NIHOVCAR3 ovarian cells; type: cell-based, human; settings: p53 Mutant
Protocol: as §3, §4

Capan-1 = test: MTT cell viability, Capan-1 cells; type: cell-based, human; settings: Capan-1 pancreatic ductal adenocarcinoma, p53 Mutant
Protocol: as §1, §2

AsPC-1 = test: MTT cell viability, AsPC-1 cells; type: cell-based, human; settings: AsPC-1 pancreatic ductal adenocarcinoma, p53 Mutant
Protocol: as §1, §2

SW1990 = test: MTT cell viability, SW1990 cells; type: cell-based, human; settings: SW1990 pancreatic adenocarcinoma, p53 Mutant (Deletion)
Protocol: as §1, §2

BxPC-3 = test: MTT cell viability, BxPC-3 cells; type: cell-based, human; settings: BxPC-3 pancreatic ductal adenocarcinoma, p53 Mutant
Protocol: as §1, §2

PANC-1 = test: MTT cell viability, PANC-1 cells; type: cell-based, human; settings: PANC-1 pancreatic ductal adenocarcinoma, p53 Mutant
Protocol: as §1, §2

HPAF-II = test: MTT cell viability, HPAF-II cells; type: cell-based, human; settings: HPAF-II pancreatic ductal adenocarcinoma, p53 Mutant
Protocol: as §1, §2

CFPAC-1 = test: MTT cell viability, CFPAC-1 cells; type: cell-based, human; settings: CFPAC-1 pancreatic ductal adenocarcinoma, p53 Mutant
Protocol: as §1, §2

DU145 = test: MTT cell viability, DU145 cells; type: cell-based; settings: DU145 prostate carcinoma, p53 Mutant, read-out: Cell viability, Human Prostate Cancer Cells
Protocol: as §3, §4

PC-3 = test: MTT cell viability, PC-3 cells; type: cell-based; settings: PC-3 prostate carcinoma, p53 Mutant, read-out: Cell viability, Human Prostate Cancer Cells
Protocol: as §3, §4

[1] = SW626 colon adenocarcinoma metastatic site: Ovary, MTT (Table 1), read-out: EC50
[2] = SW626 ovarian cells, MTT (Table 7), read-out: Cell Viability Assay

Row | Compound | EC50 (LoVo) [µM] | EC50 (SW620) [µM] | EC50 (HT29) [µM] | EC50 (SW626; [1]) [µM] | EC50 (SW626; [2]) [µM] | EC50 (Caco-2) [µM] | EC50 (SW480) [µM] | EC50 (A2780) [µM] | EC50 (NIHOVCAR3) [µM] | EC50 (Capan-1) [µM] | EC50 (AsPC-1) [µM] | EC50 (SW1990) [µM] | EC50 (BxPC-3) [µM] | EC50 (PANC-1) [µM] | EC50 (HPAF-II) [µM] | EC50 (CFPAC-1) [µM] | EC50 (DU145) [µM] | EC50 (PC-3) [µM]
1 | COc1ccc(C2=N[C@@H](c3ccc(Cl)cc3)[C@@H](c3ccc(Cl)cc3)N2C(=O)N2CCNC(=O)C2)c(OC(C)C)c1 [Nutlin 3A] | 1.5 ± 0.1 | > 100 | > 100 | > 100 | 50.3 ± 0.2 | > 50 | 58.7 ± 7.5 | 9.3 ± 0.5 | 57.7 ± 0.1 | > 100 | > 100 | > 100 | 38.5 ± 5.1 | 41.9 ± 6.9 | > 50 | > 50 | > 100 | > 100
2 | N=C(N)NCCC[C@@H]1NC(=O)[C@@H](CCCNC(=N)N)NC(=O)[C@H](CCCCN)NC(=O)[C@@H](N)CCCCNC(=O)CC[C@@H](C(=O)O)NC(=O)[C@@H](CCCNC(=N)N)NC(=O)[C@H](CCCNC(=N)N)NC(=O)[C@@H](CCCCN)NC(=O)[C@H](CCCCN)NC(=O)[C@@H](CCCNC(=N)N)NC(=O)CNC(=O)[C@@H](CCCNC(=N)N)NC1=O [cTAT] (H-KK[dR]R[dR]G[dR]K[dK]R[dR]E-OH; lactam 1-12; N-terminus and C-terminus assumed) | > 100 | > 100 | > 100 | > 100 | > 100 | > 100 | > 100 | > 100 | > 100 | > 100 | > 100 | > 100 | > 100 | > 100 | > 100 | > 100 | > 100 | > 100
3 | I: cyclo(ACICRHDSYCGSGSDGGVCPNLYLLCRRDKDCPG) / II: KK[dR]R[dR]G[dR]K[dK]R[dR][isoGln] (disulfide I:2-I:19, I:4-I:26, I:10-I:32; linker I:30-II:N via X1; lactam II:1-II:C) [Cyclotide 52-2-cTAT] | 10.7 ± 0.9 | 15.3 ± 2 | 9.9 ± 0.9 |  | 27.5 ± 0.7 | 11.7 ± 0.8 | 10.9 ± 1.3 | 9.7 ± 0.5 | 7.8 ± 0.1 | 3.3 ± 0.3 | 11.5 ± 1.5 | 11.9 ± 1.3 | 10.6 ± 1 | 20.5 ± 2.5 | 14.6 ± 1.8 | 13.4 ± 1.8 | 37 ± 1.2 | 23.2 ± 0.6
